{"source": "patent US8445509B2", "about": "“Fused heterocyclic derivatives and use thereof” (Takeda Pharmaceutical Company Limited, priority 2008, dated 2013)", "key": {"MKN-45 cells": {"test_system": "MKN-45 cells", "experiment": "Antitumor test, MKN-45 transplanted nude mouse", "assay_type": "in vivo, nude mouse (BALB/c nu/nu)", "settings": "MKN-45, dose 2 mg/kg, orally, 14 consecutive days", "method": "(§1) Cancer cells were cultured in a culture medium containing 10% bovine fetal serum in an incubator at 37° C., 5% CO2. MKN-45 cells were treated with trypsin/EDTA and isolated. MKN-45 and MV-4-11 cells were washed with HBSS (HANK's Balanced Saline Solution). When MKN-45 cells were transplanted, they were adjusted with HBSS to a cell density of 1.2×10^8 cells/mL, and transplanted by subcutaneous injection of 0.05 mL of a mixed suspension (3×10^6 cells) of the cell suspension and the same amount of Matrigel into the abdomen of 6 or 7-week-old female nude mouse (BALB/c nu/nu, CLEA Japan, Inc.). When MV-4-11 cells were transplanted, they were adjusted with HESS to a cell density of 1.2×10^8 cells/mL, and transplanted by subcutaneous injection of 0.05 mL of a mixed suspension (3×10^6 cells) of the cell suspension and the same amount of Matrigel into the abdomen of 7-week-old female nude mouse (BALB/c nu/nu, CLEA Japan, Inc.). When the average tumor volume reached 100-250 mm^3, the mice were grouped, and various doses of test substance were orally administered for 14 consecutive days starting from the next day. The length of the major axis and the length of the minor axis of the tumor were measured over time and the tumor volume was calculated by tumor volume=major axis length×minor axis length×minor axis length×0.5. The ratio of an increase in the average tumor volume of the control group to an increase in the average tumor volume of the drug administration group was taken as the tumor growth rate (%) of the drug administration group. Table 5 showned MKN-45 tumor growth rate (%) and table 6 showned MV-4-11 tumor growth rate (%)."}, "MV-4-11 cells": {"test_system": "MV-4-11 cells", "experiment": "Antitumor test, MV-4-11 transplanted nude mouse", "assay_type": "in vivo, nude mouse (BALB/c nu/nu)", "settings": "MV-4-11, dose 2 mg/kg, orally, 14 consecutive days", "method": "as §1"}}}
{"compound": "Cc1ccc(C(=O)Nc2ccc(Oc3ccc4nc(NC(=O)C5CC5)cn4c3)c(F)c2)c(=O)n1-c1ccc(F)cc1.Cl", "note": "[Example 32, N-[4-({2-[(cyclopropylcarbonyl)amino]imidazo[1,2-a]pyridin-6-yl}oxy)-3-fluorophenyl]-1-(4-fluorophenyl)-6-methyl-2-oxo-1,2-dihydropyridine-3-carboxamide hydrochloride]", "values": [{"measurement": "tumor growth rate (%)", "setting": "MKN-45 cells", "result": 14, "unit": "%"}, {"measurement": "tumor growth rate (%)", "setting": "MV-4-11 cells", "result": "<0", "unit": "%"}]}
